Entries after “also recorded” stand apart in the source; their conditions may differ.
Tests used:
[1] = test system: New Zealand rabbits; test: Carotid atherosclerotic plaque intima-media thickness (IMT) by high-frequency ultrasound in rabbit atherosclerosis model; assay type: in vivo; conditions: for intimal-medial thickness (IMT) at the largest carotid plaque: high fat diet 8 weeks, vs model group
Protocol: Forty-two male New Zealand rabbits weighed 2.0 to 2.5 kg were fed with normal diet to adapt to the housing environment for one week before experiment, and then the rabbits were fed with high fat diet (1% cholesterol; SF00-221 SpecialtyFeed Australia) for 8 weeks to establish the rabbit model of atherosclerosis. […] When the rabbits were started to give high fat diet, various drugs or vehicle (NC and MD groups) were simultaneously administered. The drug was administered once a day continuously for 8 weeks and weighed once a week to adjust the dose of drugs. Rabbits were caged in an air-conditioned room (24±1° C. room temperature and 55±5% air humidity) with 12 h light per day and had free access to water and were fed ad libitum. High-frequency ultrasound detection of carotid plaque: the high-frequency microscopy imaging system (Vevo770) was used to detect carotid atherosclerotic plaque at the end of the 8th week of the experiment. The rabbits were anesthetized with 3% pentobarbital sodium in the dose of 30 mg/kg. Using the RMV707B probe (resolution 30 MHz) to observe the carotid bifurcation plaque and measure the blood flow velocity on the carotid artery long axis section by two-dimensional ultrasound. Then adjust direction of the probe so that the angle between the probe and the carotid artery is less than 60° to obtain the long-axis view. The intima-media thickness (IMT) is measured at the maximum end-diastolic plaque. The measurement to detected IMT is taking the vertical distance between the lumen-intimal echo to the medial-outer membrane echo, and detecting the atherosclerotic plaque on the right common carotid artery bifurcation proximal. The carotid ultrasound images and the maximum IMT at the plaque were analyzed, and the morphology of atherosclerotic plaques was evaluated. The data were analyzed by Vevo770 microscopy imaging system software. All measurements were repeated twice in the same area and averaged.

[2] = test system: Sprague-Dawley rats; test: Chronic administration for 3 weeks, glucose tolerance test (OGTT) in rats; assay type: in vivo; conditions: rat, vs solvent control, listed as leonurine crystal form A
Protocol: […] male Sprague-Dawley rats weighed 180 to 220 g were randomly divided into 4 groups, and with vehicle or three different dose of leonurine crystal form A treatment respectively: control group are treated with equal volume of DMSO, and treatment groups are treated with 30 mg/kg per day, 60 mg/kg per day, or 120 mg/kg per day of leonurine crystal form A. Leonurine crystal form A was dissolved in DMSO at concentrates of 30 mg/ml, 60 mg/ml and 120 mg/ml, and the volume of vehicle administered intragastrically in each rat was 1 ml per kg of body weight. The rats were treated with leonurine crystal form A or DMSO once a day for 3 weeks. Oral glucose tolerance test (OGTT) was detected at third week, and the rats were fasted 12 h before OGTT experiment. OGTT experiment was performed 1 h after administered of drugs. Blood glucose and body weight were tested before OGTT. OGTT: Rats were given 25% glucose solution (2 g/kg of body weight, 8 ml/kg) by […], and blood glucose concentration was determined from the tail vein at 15, 30, 60 and 120 min. The drug was discontinued for one week after OGTT, and the body weight and fasting blood-glucose were detected at forth week.
The data were analyzed by SPSS statistical software (version 11.5), and results were expressed as the mean±standard error of the mean (mean±SEM). Multiple group comparisons were tested by one-way analysis of variance (ANOVA). P<0.05 was considered as statistically significant. […] At 15 min time point, the glucose tolerance curve was shifted down. […] Moreover, at 60 min time point, the glucose tolerance curve also was moved down at the dose of 30 mg/kg/d and 120 mg/kg/d.

[3] = test system: rhesus monkey; test: Model of rhesus monkey with hyperlipidemia, long-term administration; assay type: in vivo
[4] = Hygroscopicity, dynamic vapor sorption (DVS), 0-95% RH; assay type: physicochemical; conditions: for hygroscopicity (in words) / change of crystal form: range of 0-95% relative humidity
Protocol: Dynamic vapor sorption (DVS) method, instrument model: SMS DVS Intrinsic, 0˜95% RH, temperature: 25° C.; FTIR method, instrument model: Nicolet 6700, sectral range: 4000˜400 cm^−1, resolution ratio: 4 cm^−1, scanning times: 32, the infrared spectra of the samples were determined by KBr pressed-disk technique method, temperature: 25° C.;
In this invention, it is named as leonurine crystal form A, which is monohydrate crystal form, square block crystal (as shown in FIG. 13), no crystal transformation before melting, dehydrates at 120˜150° C. and transform into anhydrous crystal form B, and decomposes at about 250° C. […] Under the condition of, in the suspension experiment at 25° C., in methanol, ethanol, isopropanol, acetone, acetonitrile, tetrahydrofuran, nitromethane, ethyl acetate, isopropyl acetate, isoamyl alcohol, methyl tert-butyl ether, toluene, methyl isobutyl ketone, n-hexane, n-heptane, ether, dichloromethane, chloroform, petroleum ether, water and other solvents; and under the condition of, in the suspension experiment at 50° C., in methanol, ethanol, acetone, methyl ethyl ketone, isopropyl acetate, methyl tert-butyl ether, toluene, n-hexane, n-heptane, diethyl ether, chloroform, petroleum ether, water and other solvents; and under most solvent conditions in suspension and volatilization of mixed solvents at 25° C. and 50° C., form A can be obtained. […] In a range of 0˜95% RH, the dehydration and water absorption behavior of the crystal form is very weak.

[5] = Accelerated stability test of leonurine crystal forms; assay type: physicochemical; conditions: for Crystal stability: 70% RH, 10 days
Source text: In the invention, the dominant medicinal crystal form was also screened by the accelerated stability experimental method, and observed the transformation among the various crystal forms.

[6] = listed as leonurine crystal form A
[7] = 40° C., relative humidity 60%-80%, 10-day stability test, listed as leonurine crystal form A

hygroscopicity, water absorption ([4]; 60% RH): 60% RH, water absorption 0.07%
hygroscopicity, water absorption ([4]; 80% RH): 80% RH, water absorption 0.12%
hygroscopicity (in words) [4]: no or almost no hygroscopicity
change of crystal form ([4]; listed as Crystal Form A): didn't change
hygroscopicity (in words) ([4]; listed as Crystal Form A): no or almost no hygroscopicity
change of crystal form [4, 6]: does not change
hygroscopicity (in words) [4, 6]: no or almost no hygroscopicity
moisture absorption ([4]; relative humidity from 0 to 95%): about 0.15%
Crystal stability ([5]; 40° C.): remain unchanged
Crystal stability ([5]; 40° C., listed as A): stable
crystal transformation behavior [5, 7]: no crystal transformation behavior
hygroscopicity (in words) [5, 7]: not obvious
stability in accelerating experiments ([5]; 40° C./75% RH): most stable
Compound: COc1cc(C(=O)OCCCCNC(=N)N)cc(OC)c1O [crystal form A, 4-guanidino-1-butyl 4-hydroxy-3,5-dimethoxybenzoate]
carotid plaque thickness / IMT growth induced by high fat ([1]; high fat diet 8 weeks, 4, 8, 16 mg/kg/day, dose-dependent effect): significantly inhibited IMT growth
intimal-medial thickness (IMT) at the largest carotid plaque ([1]; high dose group 16 mg/kg/d): decrease plaque thickness
intimal-medial thickness (IMT) at the largest carotid plaque ([1]; medium dose group 8 mg/kg/d): decrease plaque thickness
glucose tolerance curve (blood glucose) ([2]; 30 mg/kg/d for 3 weeks, 15 minute time point, 30 mg/kg/day): reduce the degree of elevation of blood glucose; also recorded: decrease the level of blood glucose
glucose tolerance curve (blood glucose) ([2]; 30 mg/kg/d for 3 weeks, 60 minute time point, 30 mg/kg/day): reduce the degree of elevation of blood glucose; also recorded: decrease the level of blood glucose
glucose tolerance curve (blood glucose) ([2]; 120 mg/kg/d for 3 weeks, 60 minute time point, 120 mg/kg/day): reduce the degree of elevation of blood glucose; also recorded: decrease the level of blood glucose
low-density lipoprotein (LDL-C) [3]: decreasing
total cholesterol (TC) [3]: decreasing

Reference: patent US11446270B2, “Leonurine crystal and use thereof in preparation of insulin sensitizer, hypoglycemic drug and lipid-lowering drug” (ZHUHAI HENGQIN NEW DISTRICT ZHONGZHU ZHENGTAI MEDICAL …, priority 2017, dated 2022)
